Experiments:
[1] = system: CCR2 expressing cells (CD11b+Ly6c+Hi) in peripheral blood; assay: In vivo depletion assay, flow cytometry of peripheral blood (Example 201); parameters: species or system human CCR2 knock-in mice (C57 background); settings: hCCR2 knock-in mice, IV 0.1 mpk compound + 10 mpk anti-cotinine antibody (SEQ ID NO: 13/14), peripheral blood at 48 hr
Method: Stock solution preparation. Stock solutions of compounds of Formula (I) were prepared at 20 mg/mL and 100 mg/mL in […] for PK/PD and dose tolerability studies respectively. Stock solutions were stored at […] until further usage. on the day of experiment, the stock Solution of the compound of Formula (I) was removed from storage at […] and thawed at room temperature. Anti-cotinine antibody having a heavy chain sequence of SEC ID NO: 13 and a light chain sequence of SEQ ID NO: 14 (rabbit variable region sequence with mouse IgG2a Fc domain), if required was removed from storage at −80° C. and thawed at room temperature. Antibody vials were immediately transferred into wet ice after thawing. Compounds of Formula (I) were further diluted in DMSO as per experimental requirements.
The formulation composition was Saline: DMSI: PBS.
Saline was added based on the quantity required and then stock solution of the compound of Formula (I) prepared in DMSO, followed by addition of antibody in PBS. Formulations were incubated at room temperature for 30 minutes before administration to the mouse. DMSO was used at 1 to % (v/v) in the final formulation.
After bleeding, each mouse was sacrificed by cervical dislocation. […] Flow Cytometry Analysis:
CCR2 depletion in peripheral blood was determined by flow cytometry. Briefly, peripheral blood was collected from all animals at the end of study termination and processed. Blood samples were lysed using 1×RBC Lysis buffer and the resulting cell pellet was washed twice in FACS buffer (HBSS containing 5% FBS). Cells were subjected to Fc blocking using mouse Fc block from Biolegend (Trustain, anti-mouse CD16/32, Cat: 101319) to block non-specific binding followed by surface staining for immune markers (CD45, CD3, CD11 b, Ly6C, human CCR2). Surface staining was done for 30 minutes in ice and cells were washed twice to remove unbound antibodies. Cells were stained with 7AAD to determine viability and acquired on BD FACSVerse flow cytometer. Appropriate FMO controls and single-color controls were included in the experiment for gating and compensation respectively.
Percent depletion of CD11 b+Ly6c+Hi cells and CCR2 expression for the different treatment groups was determined.

[2] = target: human alpha1 nicotinic acetylcholine (nACh) receptor (Homo sapiens, UniProt P02708); assay: Nicotinic acetylcholine receptor antagonism assay, IONFlux automated patch clamp (Example 203); format: cell-based; settings: for IC50: antagonism of ACh-stimulated human alpha1 nAChR current, patch clamp; for Emax at 100 µM: maximum percentage antagonism at maximum concentration tested 100 μM, read-out: Maximum Response
human alpha1 nicotinic acetylcholine (nACh) receptor, sequence (P02708 21-457): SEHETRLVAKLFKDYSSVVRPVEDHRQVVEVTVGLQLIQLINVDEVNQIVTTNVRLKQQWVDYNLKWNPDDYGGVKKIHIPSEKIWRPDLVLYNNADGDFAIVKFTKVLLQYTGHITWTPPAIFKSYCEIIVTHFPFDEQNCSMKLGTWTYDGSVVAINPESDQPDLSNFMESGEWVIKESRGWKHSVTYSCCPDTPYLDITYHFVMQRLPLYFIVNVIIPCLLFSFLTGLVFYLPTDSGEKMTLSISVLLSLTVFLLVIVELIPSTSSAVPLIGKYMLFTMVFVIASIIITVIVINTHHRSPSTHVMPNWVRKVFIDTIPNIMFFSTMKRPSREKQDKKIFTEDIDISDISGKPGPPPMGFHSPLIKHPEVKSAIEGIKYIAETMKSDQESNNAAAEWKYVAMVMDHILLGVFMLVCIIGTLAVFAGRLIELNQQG
human alpha1 nicotinic acetylcholine (nACh) receptor, sequence (P11230 24-501 partner): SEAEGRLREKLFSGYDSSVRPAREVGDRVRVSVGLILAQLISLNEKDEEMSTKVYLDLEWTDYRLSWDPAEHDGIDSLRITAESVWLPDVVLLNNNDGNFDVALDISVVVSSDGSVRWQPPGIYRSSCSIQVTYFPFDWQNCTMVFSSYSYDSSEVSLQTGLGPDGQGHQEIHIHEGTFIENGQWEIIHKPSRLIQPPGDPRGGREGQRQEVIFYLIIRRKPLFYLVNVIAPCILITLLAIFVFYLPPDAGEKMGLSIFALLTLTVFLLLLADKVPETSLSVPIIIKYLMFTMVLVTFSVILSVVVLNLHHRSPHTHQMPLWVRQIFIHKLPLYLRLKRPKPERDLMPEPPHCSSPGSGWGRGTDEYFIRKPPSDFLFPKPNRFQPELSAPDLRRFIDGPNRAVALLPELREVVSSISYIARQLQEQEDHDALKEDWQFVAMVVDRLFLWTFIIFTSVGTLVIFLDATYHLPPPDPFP
human alpha1 nicotinic acetylcholine (nACh) receptor, sequence (Q07001 22-517 partner): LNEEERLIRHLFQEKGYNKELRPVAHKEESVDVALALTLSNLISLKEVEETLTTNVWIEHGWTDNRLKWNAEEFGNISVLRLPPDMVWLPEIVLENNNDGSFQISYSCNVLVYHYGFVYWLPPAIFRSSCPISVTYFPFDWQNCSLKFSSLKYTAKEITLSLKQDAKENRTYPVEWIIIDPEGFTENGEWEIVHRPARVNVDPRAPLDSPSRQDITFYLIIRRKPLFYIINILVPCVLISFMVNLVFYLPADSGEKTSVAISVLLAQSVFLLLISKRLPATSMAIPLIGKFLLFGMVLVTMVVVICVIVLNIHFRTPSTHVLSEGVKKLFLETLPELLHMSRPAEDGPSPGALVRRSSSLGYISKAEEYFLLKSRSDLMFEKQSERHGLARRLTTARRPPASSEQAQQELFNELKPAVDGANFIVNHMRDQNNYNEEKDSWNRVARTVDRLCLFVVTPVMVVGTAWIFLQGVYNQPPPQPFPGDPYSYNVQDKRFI
Method: Cells expressing human alpha1 nicotinic acetylcholine (nACh) receptor (nAChR) were washed and dissociated using Trypsin containing buffer. Cells were then washed and seeded at a density of 3-5 million cells/mL and allowed to grow for 3 days. Then, 60-80 μL of cells were added to plates and incubated with dose response of an ARM compound of Formula (I) with a top concentration of either 10 μM or 100 μM. The receptor was then stimulated via addition of acetylcholine (ACh) and activation of the receptor was monitored via the IONFlux automated patch clamp system. IonFlux Data Analyzer software was utilized to perform leak subtraction and measure (min) peak current amplitude.
Data processing: (1) Current values recorded for vehicle only applications in individual traps/patterns were subtracted from corresponding current amplitude values for control, test article and control+test article. (2) Control response was calculated as % of the average response of the 3rd out of total 3 ACh (10 mM) applications alone. In rare situations, if the 3rd ACh response was obscured due to technical artifacts, the 2nd and/or 1st ACh (10 mM) application was considered as control. The peak current amplitude generated in the presence of each test article concentration was then used to calculate the % inhibition as compared to control response (10 mM ACh alone). These estimates were further corrected for vehicle response and run down corrected by normalizing with time matched control responses (10 mM ACh alone). The corrected percentages were then fit with a non-linear function in GraphPad Prism 6 (or later versions) to determine the IC50.
Exclusion criteria: (i) any n's with poor recording quality, (ii) control current amplitude <500 pA or (iii) significant outliers, as determined by the Grubbs test.
ARMs compounds of Formula (I) of the invention were tested for antagonism of the nAChR in the above assay in […] experimental runs and the results are shown in Table 7 below. Antagonistic activity of the compounds of Formula (I) of the invention is reported as an IC50 value (half maximal inhibitory concentration) and the maximum percentage antagonism observed at the highest concentration of compound of Formula (I) tested, as indicated in Table 7. For compounds tested in more than one experimental run, the IC50 value is reported as an average

[3] = system: endogenous target monocytes in human PBMC; assay: PBMC ex vivo monocyte depletion flow cytometry assay (Example 200); format: cell-based; settings: with anti-cotinine antibody (SEQ ID NO: 11/12), 18-24 hours, EC50 in molar, read-out: Ex Vivo Depletion Assay pEC50 (converted)
Method in brief: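 Monocyte depletion is reported as pEC50, averaged or given individually across runs, and read by flow cytometry staining CD45, CD14 and CD4 with a viability dye. Compounds, diluted four-fold over 11 points from 1 mM DMSO stocks, were combined with 30 μg/mL Fc-enhanced anti-cotinine antibody and human PBMC, then incubated 18-24 h at 37° C.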

SMILES | % Depletion of CCR2 expressing cells [1] [%] | IC50 [2] [nM] | Emax at 100 µM [2] [%] | EC50 [3] [nM]
CC(C)N(C)[C@@H]1CC[C@H](N2CC[C@H](Nc3ncnc4ccc(C(F)(F)F)cc34)C2=O)[C@H](NC(=O)[C@H]2C[C@H](NC(=O)CCCO[C@H]3CC[C@H](OCCNC(=O)[C@H]4CC(=O)N(C)[C@@H]4c4cccnc4)CC3)C2)C1 [Example 8, (2S,3S)-N-(2-(((1R,4S)-4-(4-(((1R,3R)-3-(((1R,2S,5R)-5-(Isopropyl(methyl)amino)-2-((S)-2-oxo-3-((6-(trifluoromethyl)quinazolin-4-yl)amino)pyrrolidin-1-yl)cyclohexyl)carbamoyl)cyclobutyl)amino)-4-oxobutoxy)cyclohexyl)oxy)ethyl)-1-methyl-5-oxo-2-(pyridin-3-yl)pyrrolidine-3-carboxamide] | 90.3 | 47200 | 73.1 | –
CC(C)N(C)[C@@H]1CC[C@H](N2CC[C@H](Nc3ncnc4ccc(C(F)(F)F)cc34)C2=O)[C@H](NC(=O)[C@H]2CC[C@@H](NC(=O)CCOCCCNC(=O)CCCNC(=O)[C@H]3CC(=O)N(C)[C@@H]3c3cccnc3)CC2)C1 [Example 17, (2S,3S)-N-(4-((3-(3-(((1S,4s)-4-(((1R,2S,5R)-5-(Isopropyl(methyl)amino)-2-((S)-2-oxo-3-((6-(trifluoromethyl)quinazolin-4-yl)amino)pyrrolidin-1-yl)cyclohexyl)carbamoyl)cyclohexyl)amino)-3-oxopropoxy)propyl)amino)-4-oxobutyl)-1-methyl-5-oxo-2-(pyridin-3-yl)pyrrolidine-3-carboxamide] | 91 | ≥ 100000 | 55.1 | 0.631
CC(C)N(C)[C@@H]1CC[C@H](N2CC[C@H](Nc3ncnc4ccc(C(F)(F)F)cc34)C2=O)[C@H](NC(=O)[C@H]2C[C@H](NC(=O)CCOCCOCCOCCNC(=O)[C@H]3CC(=O)N(C)[C@@H]3c3cccnc3)C2)C1 [Example 27, (2S,3S)-N-(2-(2-(2-(3-(((1R,3r)-3-(((1R,2S,5R)-5-(Isopropyl(methyl)amino)-2-((S)-2-oxo-3-((6-(trifluoromethyl)quinazolin-4-yl)amino)pyrrolidin-1-yl)cyclohexyl)carbamoyl)cyclobutyl)amino)-3-oxopropoxy)ethoxy)ethoxy)ethyl)-1-methyl-5-oxo-2-(pyridin-3-yl)pyrrolidine-3-carboxamide] | 80 | 93700 | 53.8 | 10
CC(C)N(C)[C@@H]1CC[C@H](N2CC[C@H](Nc3ncnc4ccc(C(F)(F)F)cc34)C2=O)[C@H](NC(=O)[C@H]2CC[C@H](N3CCN(C(=O)CCCCCCCCNC(=O)[C@H]4CC(=O)N(C)[C@@H]4c4cccnc4)CC3)CC2)C1 [Example 155, (2S,3S)-N-(9-(4-((1R,4r)-4-(((1R,2S,5R)-5-(Isopropyl(methyl)amino)-2-((S)-2-oxo-3-((6-(trifluoromethyl)quinazolin-4-yl)amino)pyrrolidin-1-yl)cyclohexyl)carbamoyl)cyclohexyl)piperazin-1-yl)-9-oxononyl)-1-methyl-5-oxo-2-(pyridin-3-yl)pyrrolidine-3-carboxamide] | 70 | – | – | 0.251
CC(C)N(C)[C@@H]1CC[C@H](N2CC[C@H](Nc3ncnc4ccc(C(F)(F)F)cc34)C2=O)[C@H](NC(=O)CCCCOCCCCCCCCOCCCCNC(=O)[C@H]2CC(=O)N(C)[C@@H]2c2cccnc2)C1 [Example 161, (2S,3S)-N-(4-((8-((5-(((1R,2S,5R)-5-(Isopropyl(methyl)amino)-2-((S)-2-oxo-3-((6-(trifluoromethyl)quinazolin-4-yl)amino)pyrrolidin-1-yl)cyclohexyl)amino)-5-oxopentyl)oxy)octyl)oxy)butyl)-1-methyl-5-oxo-2-(pyridin-3-yl)pyrrolidine-3-carboxamide] | 76.67 | – | – | 0.794
CC(C)N(C)[C@@H]1CC[C@H](N2CC[C@H](Nc3ncnc4ccc(C(F)(F)F)cc34)C2=O)[C@H](NC(=O)C2CCN(c3cnc(NCCOCCOCCNC(=O)[C@H]4CC(=O)N(C)[C@@H]4c4cccnc4)cn3)CC2)C1 [Example 162, N-((1R,2S,5R)-5-(Isopropyl(methyl)amino)-2-((S)-2-oxo-3-((6-(trifluoromethyl)quinazolin-4-yl)amino)pyrrolidin-1-yl)cyclohexyl)-1-(5-((2-(2-(2-((2S,3S)-1-methyl-5-oxo-2-(pyridin-3-yl)pyrrolidine-3-carboxamido)ethoxy)ethoxy)ethyl)amino)pyrazin-2-yl)piperidine-4-carboxamide] | 66 | – | – | 1.58
CC(C)N(C)[C@@H]1CC[C@H](N2CC[C@H](Nc3ncnc4ccc(C(F)(F)F)cc34)C2=O)[C@H](NC(=O)[C@H]2CC[C@@H](NC(=O)C3CCC4(CC3)CCN(CCNC(=O)[C@H]3CC(=O)N(C)[C@@H]3c3cccnc3)CC4)CC2)C1 [Example 170, N-((1S,4s)-4-(((1R,2S,5R)-5-(Isopropyl(methyl)amino)-2-((S)-2-oxo-3-((6-(trifluoromethyl)quinazolin-4-yl)amino)pyrrolidin-1-yl)cyclohexyl)carbamoyl)cyclohexyl)-3-(2-((2S,3S)-1-methyl-5-oxo-2-(pyridin-3-yl)pyrrolidine-3-carboxamido)ethyl)-3-azaspiro[5.5]undecane-9-carboxamide] | 94.75 | – | – | 0.398
CC(C)N(C)[C@@H]1CC[C@H](N2CC[C@H](Nc3ncnc4ccc(C(F)(F)F)cc34)C2=O)[C@H](NC(=O)C2CCN(C3CCN(C(=O)CCOCCOCCNC(=O)[C@H]4CC(=O)N(C)[C@@H]4c4cccnc4)CC3)CC2)C1 [Example 172, N-((1R,2S,5R)-5-(Isopropyl(methyl)amino)-2-((S)-2-oxo-3-((6-(trifluoromethyl)quinazolin-4-yl)amino)pyrrolidin-1-yl)cyclohexyl)-1′-(3-(2-(2-((2S,3S)-1-methyl-5-oxo-2-(pyridin-3-yl)pyrrolidine-3-carboxamido)ethoxy)ethoxy)propanoyl)-[1,4′-bipiperidine]-4-carboxamide] | 80 | – | – | 2
CC(C)N(C)[C@@H]1CC[C@H](N2CC[C@H](Nc3ncnc4ccc(C(F)(F)F)cc34)C2=O)[C@H](NC(=O)CCOCCOCCO[C@H]2CC[C@H](OCCNC(=O)[C@H]3CC(=O)N(C)[C@@H]3c3cccnc3)CC2)C1 [Example 192, (2S,3S)-N-(2-(((1R,4S)-4-(2-(2-(3-(((1R,2S,5R)-5-(Isopropyl(methyl)amino)-2-((S)-2-oxo-3-((6-(trifluoromethyl)quinazolin-4-yl)amino)pyrrolidin-1-yl)cyclohexyl)amino)-3-oxopropoxy)ethoxy)ethoxy)cyclohexyl)oxy)ethyl)-1-methyl-5-oxo-2-(pyridin-3-yl)pyrrolidine-3-carboxamide] | 84.8 | 74300 | 53 | –

— patent US12521393B2, “Cytotoxicity targeting chimeras for CCR2-expressing cells” (GLAXOSMITHKLINE INTELLECTUAL PROPERTY DEVELOPMENT LIMITED, priority 2021, dated 2026)
